In patent US12016942B2, “Potassium hydrogen salts of alkylhydroxamates and compositions comprising the same” (Inolex Investment Corporation, priority 2021, dated 2024):

How the values were obtained:
[1] = cited from earlier work
[2] = Solution pH of alkali metal salts of caprylhydroxamic acid in deionized water; format: physicochemical; conditions: for Solution pH Difference: NaCH minus KH(CH)2
From the text: In some cases, the pH adjuster brings the aqueous formulation including potassium hydrogen alkylhydroxamate salts to a lower pH value than if no pH adjuster were employed in the compound. The amount of pH adjuster will depend upon the concentration of the potassium hydrogen alkylhydroxamate salts in aqueous solution. […] […] Target pH levels for the formulations as disclosed herein, e.g., for personal care products and the like, are less than pH 8. Minimal additions of the pH adjuster are required when using potassium hydrogen alkylhydroxamate salt compounds as described herein to achieve the desired pH less than 8.

[3] = Titration of aqueous solutions with 0.1 N HCl; format: physicochemical; conditions: for titration endpoint: 0.24 wt % aqueous solution, 0.1 N HCl
Method: Aqueous solutions (0.24 wt %) of KH(CH)2 and NaCH were prepared by dissolving the respective compounds of Example 1 and Comparative Example 1 in deionized water. The solutions were titrated with 0.1 N HCl solution using a Metrohm autotitrator.

| SMILES | pKa [1] | Solution pH ([2]; 0.15 % in deionized water) | Solution pH ([2]; 0.25 % in deionized water) | Solution pH ([2]; 0.50 % in deionized water) | pH value in a 1% aqueous solution [2] | Solution pH ([2]; 1.00 % in deionized water) | titration endpoint [3] [mL] | Solution pH Difference ([2]; 0.15 %) | Solution pH Difference ([2]; 0.25 %) | Solution pH Difference ([2]; 0.50 %) | Solution pH Difference ([2]; 1.00 %) | less acid required to neutralize vs NaCH solution ([3]; identical concentration 0.24 wt %) |
| --- | --- | --- | --- | --- | --- | --- | --- | --- | --- | --- | --- | --- |
| CCCCCCCC(=O)NO [CHA, caprylhydroxamic acid] | ≈ 9.4 | – | – | – | – | – | – | – | – | – | – | – |
| CCCCCCCC(=O)N[O-].O.[Na+] [Comparative Example 1, sodium octanohydroxamate monohydrate, reference compound] | – | 10.26 | 10.85 | 10.95 | 11.0-11.5 | 11.10 | 18.4 | – | – | – | – | – |
| CCCCCCCC(=O)NO.[K] [Example 1, potassium hydrogen caprylhydroxamate] | – | 9.35 | 9.64 | 9.60 | 9.0-10.0 | 9.58 | 10.7 | 0.91 | 1.21 | 1.35 | 1.52 | approximately 42% |
